According to patent US5597798A, “Taxol and epidermal growth factor used to enhance treatment of ovarian cancer” (The Regents of the University of California, priority 1994, dated 1997):

Assays:
[1] = system: 2008/C13*5 cells; assay: Cellular accumulation of DDP; type: cell-based, human; details: medium alone, end of a 1-h incubation
Protocol: Cell-associated ^195m Pt was determined by as a measure of DDP accumulation. For DDP accumulation studies, subconfluent monolayers were treated with 37° C. RPMI 1640 medium containing 20 μM [^195m Pt]-DDD. The dishes were immediately returned to the incubater. After 1 h incubation, the medium was aspirated, the cells were washed rapidly with 4° C. PBS 4 times. Two ml of 1N NaOH was added and the cells allowed to digest overnight. A forty μl aliquot was used for determination of protein content by the method of Bradford (Bradford, Anal. Biochem. 72:248-254 (1976)), and the remaining […] was counted in glass tubes on a Trak 1191 gamma counter (Tracer Analytic, EIK Grove Village, Ill.). Columns represent the mean values of 3 experiments performed with duplicate cultures. The bars represent the standard deviation.
The 2008/C13*5 cell line is 8-10-fold resistant to DDP. […] C13*5 cells were treated with appropriate concentration of DDP in the presence (.circle-solid.) or absence (0) of 10^-7 M TPA for 1 h. Drug cytotoxicity was determined by colonogenic assay on plastic dishes. Each point represents the mean values of 3 experiments performed with triplicate cultures. The bars represent the standard deviation. […] This 2.6-fold sensitization was nearly identical with the 2.5 fold sensitization observed in the DDP-sensitive 2008 cells. […]

[2] = system: 2008 cells; assay: Colony forming (colonogenic) assay, effect of TPA, phorbol and staurosporine on DDP sensitivity

N.N.[Cl][Pt][Cl] [cisplatin]
DDP accumulated [1]: 37.0±3 pmol/mg of protein
colony survival ([2]; 2 μM DDP in the absence of TPA (FIG. 6)): approximately 80%
survival, % of control ([2]; DDP (2 μM) alone): 85±5%
